The results in this text go back to patent US20080254042A1, “Novel Use of Prrp and Receptor Thereof” (Takeda Pharmaceutical Company Limited, priority 2004, published 2008).

Data set [1] deals with PrRP knockout mice and wild-type mice. Kind of data set: Survival of PrRP knockout and wild-type mice after MPTP administration. In kind it is in vivo, mouse. Particulars: MPTP i.p. every 2 hours 4 times at 20 μg/kg, five days after administration. The protocol: MPTP (methyl-phenyl-tetrahydropyridine) known to produce animal models of Parkinson's disease was intraperitoneally administered to PrRP knockout mice and wild-type mice every 2 hours 4 times at the dose of […]. Five days after the administration, 11 out of 21 wild-type mice survived with a survival rate of 52%, whereas 10 out of 10 PrRP knockout mice survived, meaning that there was no dead animal and the survival rate was 100%.

In data set [2] the test system is nigral dopamine cells. Kind of data set: Number of tyrosine hydroxylase positive (dopamine) cells in the substantia nigra after MPTP, PrRP knockout vs wild-type mice. In kind it is in vivo, mouse. Particulars: FIG. 1. From the text:
It is known that MPTP (methyl-phenyl-tetrahydropyridine) causes degenerative loss of nigral dopamine cells to induce Parkinson's disease. Thus, the brains were excised from PrRP knockout mice and wild-type mice, to which MPTP or saline for control was given as in EXAMPLE 1, and then immersed and fixed in a 0.07M phosphate buffer (pH 7.4) containing 5% acrolein (Tokyo Chemical Industry). The brains were then immersed in 30% sucrose-containing phosphate buffered saline (PBS) for more than 2 days. The free-floating technique was used for immunohistochemistry. A frozen frontal section in 40 μm thickness of the brain was prepared using a cryomicrotome. Next, the section was soaked in and washed with PBS for water immersion, then treated with 0.5% sodium metaperiodate-containing PBS (20 minutes) to inactivate the endogenous peroxidase activity, and the aldehyde group was reduced by treatment with 1% sodium borohydride-containing PBS (20 minutes). In addition, non-specific reactions were blocked by treatment with 1% normal horse serum and 0.4% Triton X-100-containing BPS (TNBS) (an hour). […] The number of tyrosine hydroxylase positive cells, which are dopamine cells in the substantia nigra, was counted under an optical microscope.

A short description of data set [3]: Motor activity assessed with a rotarod after MPTP, PrRP knockout vs wild-type mice. In kind it is in vivo, mouse. Particulars: FIG. 2. As for the experimental part: In order to examine the relation of Parkinson's disease to PrRP, decrement of motor activities known as symptoms of Parkinson's disease induced by administration of MPTP was compared between PrRP knockout mice and wild-type mice. The motor activity of each mouse was assessed with a rotarod. […] Turning to the PrRP knockout mice, there was no difference between the group administered with MPTP and the group administered with saline for control, and the motor activity was normal (FIG. 2). These phenomena reveal that onset of Parkinson's disease induced by MPTP was suppressed in the PrRP knockout mice.

Data set [4] is described as follows: Catecholamine level in the striatum after MPTP, PrRP knockout vs wild-type mice. In kind it is in vivo, mouse. Particulars: seven days after final administration, FIG. 3. As for the experimental part:
MPTP or saline for control was administered to PrRP knockout mice and wild-type mice in a manner similar to EXAMPLE 1. Seven days after the final administration, the striatal sites were immediately excised from the brains, frozen in liquid nitrogen and then stored at −80° C. Catecholamines such as Dopamine (DA), DOPAK, HVA, etc. were measured as follows. First, the excised corpus striata were homogenized in 0.2M perchloric acid containing 100 ng/mL isoproterenol (Sigma), centrifuged at 15,000 g for 20 minutes at 0° C., and filtered through a 0.22 μm filter. The final solution, 10 μL, was separated under the conditions at flow rate of 0.5 mL/min in 83% 0.1 M acetic acid-citrate buffer (pH 3.5)/17% methanol solution containing 190 mg/L SDS and 5 mg/L EDTA-2Na through EICOMPAK SC-50DS column (3.0 mm×150 mm, EICOM), and determined by electrochemical detection.

The subject of data set [5] is striatal dopamine nerve fibers. Kind of data set: TH-positive fiber density in the striatum, MPTP after intraventricular antibody. Particulars: C57BL/6J mice given normal mouse IgG i.c.v., then MPTP 20 mg/kg i.p. 4 times every 2 hours; P<0.05; FIG. 5.
Source text: (§1) Male C57BL/6J mouse (CLEA Japan) of 14 weeks old was fixed on a brain stereotaxic apparatus under anesthesia with pentobarbital (Dainippon Pharmaceutical) and the skull surface was exposed. After the skull was dried with a drier, the coordinates of bregma were located to determine the coordinates of the left lateral ventricle (AP: −0.2 mm, lateral: +1.0 mm, depth: +2.5 mm from bregma). After a burr hole was made with a dental drill on the skull across the bregma from the location of the left lateral ventricle, anchor screws (EICOM) were implanted to fix a dental cement (GC Corp., Unifast II). A hole was made with a dental drill (Urawa Corp., Model: UC100) for guide cannulation to vertically insert into the skull on the left lateral ventricle, and a guide cannula (EICOM) was eased down toward the ventricle. After leakage of cerebrospinal fluids was confirmed, the guide cannula was fixed on the coordinates determined. The dental cement was used for fixation and applied until the anchor screws were embedded. After it was confirmed that the cement was dried, the mouse was released from the stereotaxic apparatus. […]
(§2) The antibody solution was diluted in Centriprep (Millipore). Absorbance (280 nm) was measured to determine the antibody concentration, and the antibody was diluted in aseptic PBS (−) to 9.97 mg/mL. […]
Data set [6] has as its system nigral dopamine cells. Kind of data set: Number of TH-positive cells in the substantia nigra pars compacta, MPTP after intraventricular antibody. As to conditions: C57BL/6J mice given normal mouse IgG i.c.v., then MPTP 20 mg/kg i.p. 4 times every 2 hours; P<0.001; FIG. 4.
Source text: as §1, §2

As for `CN1CC=C(c2ccccc2)CC1` [MPTP], the survival rate in data set [1] (PrRP knockout mice, 10 out of 10 survived) stood at 100%; in data set [1] (wild-type mice, 11 out of 21 survived), 52%. In addition, the “decrease in number of tyrosine hydroxylase positive cells in the substantia nigra, MPTP group vs saline group” value is “about 10%” in the data set with nigral dopamine cells [2] (PrRP knockout mice, no significant change) and “about 60%” in the data set with nigral dopamine cells [2] (wild-type mice, significant). Further, the figures for the “motor activity (rotarod), MPTP group vs saline group” value in data set [3] (PrRP knockout mice) and in data set [3] (wild-type mice) were “no difference” and “markedly decreased”, respectively. Also, the “striatal dopamine (DA), DOPAC and HVA levels after MPTP” value in data set [4] (PrRP knockout mice) is “the degree of the decrease was smaller”; in data set [4] (wild-type mice), “decreased markedly”. Further, the “striatal dopamine nerve fibers (image analysis), vs saline group” value in data set [5] is listed as “significant decrease”. Also, in the data set on nigral dopamine cells [6], the “dopamine cells in the substantia nigra pars compacta, vs saline group” value was “significant decrease”.
